Results as given in paper PMC11678873, “Ketoconazole-Fumaric Acid Pharmaceutical Cocrystal: From Formulation Design for Bioavailability Improvement to Biocompatibility Testing and Antifungal Efficacy Evaluation” (International Journal of Molecular Sciences, 2024).

Experiments:
BALBc mice [1] = experiment: Inflammatory cytokines in treated ear tissue, ELISA (MEST); type: in vivo
Protocol: (§1) For the oxidative stress assessment, the level of malondialdehyde, a marker of lipid peroxidation, was measured from lysates of liver samples (in vivo) and cells-BJ and HepG2 (in vitro), using the Malondialdehyde Colorimetric Assay Kit (TBA Method) provided by ElabScience. Tissue sample homogenates (liver and ear) were prepared as previously described by David et al.. […] Inflammatory reaction was assessed by measurement of the tumor necrosis factor α (TNFα) in liver samples, using the rat TNFα ELISA kit from EIAAB. IL1α and β and IL6 measurement from the mice ear lysates were completed by ELISA, using the respective kits from Quantikine ELISA Immunoassay kit. Tissue homogenate samples were treated according to manufacturer’s instructions; readings were performed at 450 nm with correction wavelength set at 540 nm, using an ELISA plate reader (Tecan, Grödig, Austria).
(§2) On day one, under anesthesia, all mice received 30 µL/mouse of Freund’s complete adjuvant (Thermo Scientific™, Waltham, MA, USA), subcutaneously, in the right flank and the abdominal fur was carefully shaved, without skin abrasion. Then animals were treated with 100 µL of locally applied solution (abdominal skin) of each tested substance, in a concentration of 200 µg mL^−1 solved in ethanol 70%, daily for the first 6 days. The left ear thickness of each mouse was measured with an electronic caliper (initial value). Each mouse was treated with 50 µL/ear of the same solution on the left ear pinnae on day 7—challenge and on day 14—rechallenge. Ear thickness was measured at 24 h and 48 h after challenge and rechallenge, respectively. Then mice were humanely sacrificed, under anesthesia, and ears were collected for inflammatory markers (IL1α, IL1β and IL6) assessment and histopathology.

BALBc mice [2] = experiment: Histopathology of ear sections (MEST); type: in vivo
Protocol: as §2
(§3) For histopathological examination, the collected samples (liver and ears) were fixed in 10% buffered neutral formalin, embedded in paraffin, cut at 4 micrometer thickness, and stained using the Hematoxylin–Eosin (H&E) method. The slides were examined under a BX51 Olympus microscope, and images were taken with an Olympus UC 30 digital camera (Olympus, Hamburg, Germany) and processed using the Olympus Stream Basic program.

[3] = tested on: HepG2 hepatocarcinoma cells; experiment: Oxidative damage, malondialdehyde (MDA) in cell lysates, HepG2; type: cell-based, human; details: HepG2, 6 µM, 24 h, vs untreated controls
Protocol: as §1, with “Oxidative stress-induced damage was assessed in vitro by malondialdehyde (MDA) measurement from cell lysates. […] Cell lysates were then prepared as described. The concentration of 6 μM was chosen to mimic the clinical scenario [47]. […] For” for “For”, “manufacturer's” for “manufacturer’s”

humans = details: 75 subjects, 500 mg daily for one year; cited from earlier work
[4] = tested on: HepG2 hepatocarcinoma cells; experiment: Cell viability, MTS assay, HepG2 hepatocarcinoma cells; type: cell-based, human; details: for cell viability (effect in words): HepG2, 24 h, Figure 4; for IC50: Homo sapiens, HepG2 hepatocarcinoma cells, 24 h exposure, range 0.01–100 µM, MTS
Protocol: (§4) Dermal fibroblasts (BJ-ATCC CRL-2522™) and hepatocarcinoma cells (HepG2-HB-8065, ATCC, Gaithersburg, MD, USA) were employed. Cell culture medium used was Dulbecco modified Eagle medium (DMEM) supplemented with 5% FCS-fetal calf serum, 50 µg mL^−1 gentamycin, and 5 ng mL^−1 amphotericin, all from Biochrom AG (Berlin, Germany). Medium was changed twice a week. For all experiments, a medium with 2% FCS was used. […] The final concentration of DMSO in the solutions added to the cells was lower than 0.05%, without negative viability effects. Viability was measured using the MTS assay CellTiter 96® AQueous Non-Radioactive Cell Proliferation Assay from (Promega Corporation, Madison, WI, USA), as indicated by the producer. […] Negative controls were treated with medium. Viability was measured through colorimetry, using an ELISA plate reader (Tecan, Männedorf, Switzerland) at 540 nm. All experiments were performed in triplicate. […] Inhibitory concentration (IC50) was calculated. The statistical difference between experimental groups was evaluated by nonparametric Kruskal–Wallis test, followed by Dunns post-test; the statistical significance of the treatments and time exposure within the experimental groups was tested using two-way ANOVA, followed by Bonferroni post-tests; results were considered significant for p < 0.05. […] Statistical package used for data analysis was Prism version 4.00 for Windows, GraphPad Software, San Diego, CA, USA, www.graphpad.com. For IC50 calculation of the cell viability in vitro, the AAT Bioquest was used.

Candida albicans = tested on: Candida albicans; set-up: method as in PMID 1799950; details: ICR mice, systemic Candida albicans infections, intraperitoneal; cited from earlier work
BJ dermal fibroblasts [5] = experiment: Cell viability, MTS assay, BJ dermal fibroblasts; type: cell-based, human; details: for cell viability (effect in words): BJ, 24 h, Figure 4; for IC50: Homo sapiens, Fibroblast, BJ dermal fibroblasts, 24 h exposure, range 0.01–100 µM, MTS
Protocol: as §4

BJ dermal fibroblasts [6] = experiment: Oxidative damage, malondialdehyde (MDA) in cell lysates, BJ; type: cell-based, human; details: 6 µM, 24 h, vs untreated controls
Protocol: as §1, with “Oxidative stress-induced damage was assessed in vitro by malondialdehyde (MDA) measurement from cell lysates. […] Cell lysates were then prepared as described. The concentration of 6 μM was chosen to mimic the clinical scenario [47]. […] For” for “For”, “manufacturer's” for “manufacturer’s”

in vivo = details: female, Wistar, rat, po, 20 mg/kg
Protocol: (§5) Regarding HPLC-MS Quantification, serum samples were processed according to the modified protocol described by Wang et al. [99]. According to this protocol, 0.5 mL of serum was extracted into 3 mL of ethyl acetate by shaking for 3 min, after which the mixture was centrifuged for 8 min at 4000 rpm. The organic layer, after being transferred to a clean tube, was evaporated at 37 °C under a stream of nitrogen. The residue was resuspended in 100 μL acetonitrile and then analyzed using a LC2010 Shimadzu (Shimadzu, Kyoto, Japan) high-performance liquid chromatograph, equipped with diode array (DAD) and quadrupole mass spectrometer (MS) detectors.
(§6) Chromatographic separation was performed on a Grace Alltima C18 column (100 × 3 mm, 3 μm), at a temperature of 40 °C, using acetonitrile-water mixture 1:1 (V/V) with 0.1% formic acid as the mobile phase. The elution was carried out isocratically with 0.4 mL min^−1 flow rate. The injected sample volume was 10 μL. The mass spectrometer parameters were the capillary voltage of 1.5 kV, desolvation temperature of 250 °C, and interface temperature of 200 °C.

[7] = set-up: method as in PMID 3767339; details: healthy humans, therapeutic oral dose of 200 mg KTZ; cited from earlier work
BALBc mice [8] = details: mouse, in vivo
Wistar rats = experiment: Liver histopathology (HE stain); type: in vivo; details: oral 20 mg kg^−1 bw, 30 min, 24 h, 7 days
Protocol: Adult female Wistar rats, 3 months old (200 g body weight), were kept in standard cages type II, 5 animals/cage, in constant conditions of humidity (65%), temperature (21 °C), and day/night cycles of 12 h, fed with standard food (Cantacuzino Institute, Bucharest, Romania) and water ad libitum. […] […] Blood and liver samples were collected.
For the histopathological examination, the liver samples collected from the left lateral lobe and right medial lobe were fixed in 10% buffered neutral formalin, embedded in paraffin, cut at 4 µm thickness, and stained using the Hematoxylin–Eosin (H&E) staining method. The slides were examined under a BX51 Olympus microscope, and images were taken with an Olympus UC 30 digital camera (Olympus, Hamburg, Germany) and processed using the Olympus Stream Basic program.
as §3

[9] = Wistar rats, one oral dose 20 mg kg^−1 bw
Protocol: as §5, §6

[10] = BALBc mice, ear collected at R48 h, ELISA, vs control
[11] = BALBc mice, after MEST, HE stain

SMILES	IL1α in treated ear tissue (BALBc mice [1]; [10])	IL1β in treated ear tissue (BALBc mice [1]; [10])	IL6 in treated ear tissue (BALBc mice [1]; [10])	histology of ear pinna (BALBc mice [2]; [11])	malondialdehyde (MDA), marker for lipid peroxidation [3]	cell viability (effect in words) [4]	IC50 [4]	cell viability (effect in words) (BJ dermal fibroblasts [5])	IC50 (BJ dermal fibroblasts [5])	malondialdehyde (MDA), marker for lipid peroxidation (BJ dermal fibroblasts [6])	other results
O=[N+]([O-])c1ccc(Cl)c([N+](=O)[O-])c1 [DNCB, dinitrochlorobenzene]	significant increase	significant increase	significant increase	contact dermatitis							
O=C(O)/C=C/C(=O)O [FUM, trans-2-butenedioic acid]					slightly increased	minimal effect	3.19 µM	minimal effect	7.26 µM	smaller effect	adverse effects in humans (humans): no evidence of adverse effects; IL1α in treated ear tissue (BALBc mice [1]; mouse, in vivo): decreased; IL1β in treated ear tissue (BALBc mice [1]; mouse, in vivo): decreased; IL6 in treated ear tissue (BALBc mice [1]; mouse, in vivo): increased; survival of infected mice (Candida albicans): prolonged survival and prevented one-fifth of deaths; histology of ear pinna (BALBc mice [2]; mouse, in vivo): No histological changes
CC(=O)N1CCN(c2ccc(OCC3COC(Cn4ccnc4)(c4ccc(Cl)cc4Cl)O3)cc2)CC1 (stereo not drawn) [KTZ, cis-1-acetyl-4-[4-[[(2RS,4SR)-2-(2,4-dichlorophenyl)-2-(1H-imidazol-1-ylmethyl)-1,3-dioxolan-4-yl]methoxy]phenyl]piperazine]	decreased	decreased	increased	No histological changes	decreased	decreased	7.48 µM	decreased	7.45 µM	decreased	AUC(0-t) (in vivo): 3820 ng·h/mL; Cmax (in vivo; Cmax, Wistar rats, one oral dose 20 mg kg^−1 bw, serum): 5820 ± 700 ng/mL; plasma concentration [7]: 5.85 µM; epicutaneous sensitization, ear thickness (BALBc mice [8]): did not induce any allergic reactions; liver histopathology (Wistar rats): normal hepatic architecture; detection in plasma over time [9]: not detected after 6 h
